The subject of assay [1] is Wnt activity (Sp5-Luc reporter, SW480 colon carcinoma cells). In words: Sp5-Luc Wnt reporter gene assay in SW480 colon carcinoma cells. The assay is classed as cell-based. The note with it: Homo sapiens; SW480 cells stably expressing Sp5-Luc reporter; 42 h incubation; BrightGlo luminescence normalized to DMSO. An excerpt:
The screening assay for Wnt activity is described as follows. Reporter cell lines can be generated by stably transducing cancer cell lines (e.g., colon cancer) or primary cells (e.g., IEC-6 intestinal cells) with a lentiviral construct that includes a Wnt-responsive promoter driving expression of the firefly luciferase gene.
SW480 colon carcinoma cells were transduced with a lentiviral vector expressing luciferase with a human Sp5 promoter consisting of a sequence of eight TCF/LEF binding sites. SW480 cells stably expressing the Sp5-Luc reporter gene and a hygromycin resistance gene were selected by treatment with 150 μg/ml of hygromycin for 7 days. These stably transduced SW480 cells were expanded in cell culture and used for all further screening activities. For Sp5-Luc reporter gene assays, the cells were plated at 10,000 cells/well in 96-well plates with growth medium containing 10% fetal calf serum and incubated overnight at 37° C. and 5% CO2. Each compound was dissolved in DMSO as a 10 mM stock in standard j-vials and used to prepare compound source plates in dose-response format with 3-fold serial dilutions and a 10 mM top concentration. Compound transfer from serially diluted source plates to assay plates containing the cells was accomplished using a pintool (Multimek 96, Beckman equipped with V&P Scientific FP1S50H pins) based liquid handling protocol. This protocol used a slotted pin to transfer 50 nl of compound from a source plate well to an assay plate well containing 50 μl of cells in growth medium. […] Control wells received 50 nl of DMSO treatment for normalization and calculating IC50 values. The treated cells were incubated at 37° C. and 5% CO2 for an additional forty-two hours. Following incubation, the growth medium was removed and 50 μl of BrightGlo luminescence reagent (Promega) was added to each well of the 96-well assay plates. The plates were placed on an orbital shaker for 5 min and then luminescence was quantified on the Victor3 (Perkin Elmer) plate reader. Readings were normalized to DMSO only treated cells, and normalized activities were utilized for IC50 calculations using the dose-response log (inhibitor) vs. response-variable slope (four parameters) nonlinear regression feature available in GraphPad Prism 5.0 or 6.0.
(In general: A reporter such as luciferase makes a cellular process visible.)

The test system of assay [2] is primary human fibroblasts derived from IPF patients (LL29 cells). In words: Inhibition of TGF-β1-induced fibrosis (αSMA staining) in primary human fibroblasts from IPF patients. The assay is classed as cell-based. The note with it: Fibroblast, 96 h, TGF-β1 20 ng/mL, 4 days, 11-point dose-response 10 μM to 1.87 nM. An excerpt:
The above synthesized compounds were screened using primary human fibroblasts (derived from IPF patients) treated with TGF-β1 to determine their ability to inhibit the fibrotic process.
Primary human fibroblasts derived from IPF patients (LL29 cells) [^1Xiaoqiu Liu, et. al., “Fibrotic Lung Fibroblasts Show Blunted Inhibition by cAMP Due to Deficient cAMP Response Element-Binding Protein Phosphorylation”, Journal of Pharmacology and Experimental Therapeutics (2005), 315(2), 678-687; ^2Watts, K. L., et. al., “RhoA signaling modulates cyclin D1 expression in human lung fibroblasts; implications for idiopathic pulmonary fibrosis”, Respiratory Research (2006), 7(1), 88] were obtained from American Type Culture Collection (ATCC) and expanded in F12 medium supplemented with 15% Fetal Bovine Serum and Penicillin/Streptomycin.
Each compound was dissolved in DMSO as a 10 mM stock and used to prepare compound source plates. Serial dilution (1:2, 11-point dose-response curves from 10 μM to 1.87 nM) and compound transfer was performed using the ECHO 550 (Labcyte, Sunnyvale, Calif.) into 384-well clear bottom assay plates (Greiner Bio-One) with appropriate DMSO backfill for a final DMSO concentration of 0.1%. LL29 cells were plated at 1,500 cells/well in 80 μl/well F12 medium supplemented with 1% Fetal Bovine Serum. One hour after addition of the cells, TGF-β1 (Peprotech; 20 ng/mL) was added to the plates to induce fibrosis (ref. 1 and 2 above). Wells treated with TGF-β1 and containing DMSO were used as controls. Cells were incubated at 37° C. and 5% CO2 for 4 days. Following incubation for 4 days, SYTOX green nucleic acid stain (Life Technologies [Thermo Fisher Scientific]) was added to the wells at a final concentration of 1 uM and incubated at room temperature for 30 min. Cells were then fixed using 4% formaldehyde (Electron Microscopy Sciences), washed 3 times with PBS followed by blocking and permeabilization using 3% Bovine Serum Albumin (BSA; Sigma) and 0.3% Triton X-100 (Sigma) in PBS. Cells were then stained with antibody specific to α-smooth muscle actin (αSMA; Abcam) (ref 1 and 2 above) in 3% Bovine Serum Albumin (BSA; Sigma) and 0.3% Triton X-100 (Sigma) in PBS, and incubated overnight at 4° C. Cells were then washed 3 times with PBS, followed by incubation with Alexa Flor-647 conjugated secondary antibody (Life Technologies [Thermo Fisher Scientific]) and DAPI at room temperature for 1 hour. Cells were then washed 3 times with PBS and plates were sealed for imaging. αSMA staining was imaged by excitation at 630 nm and emission at 665 nm and quantified using the Compartmental Analysis program on the CellInsight CX5 (Thermo Scientific). Dead or apoptotic cells were excluded from analysis based on positive SYTOX green staining. % of total cells positive for αSMA were counted in each well and normalized to the average of 11 wells treated with TGF-β1 on the same plate using Dotmatics' Studies Software. The normalized averages (fold change over untreated) of 3 replicate wells for each compound concentration were used to create dose-responses curves and EC50 values were calculated using non-linear regression curve fit in the Dotmatics' Studies Software. The EC50 values are reported.

For `CN(C)c1cncc(-c2cnc3[nH]nc(-c4nc5c(-c6cccc(F)c6)nccc5[nH]4)c3c2)c1` [Compound 7, 5-(3-(4-(3-Fluorophenyl)-1H-imidazo[4,5-c]pyridin-2-yl)-1H-pyrazolo[3,4-b]pyridin-5-yl)-N,N-dimethylpyridin-3-amine], in assay [1], the IC50 (as a rule, the concentration at which inhibition is half-maximal) was determined as 35.3 nM. Moreover, in assay [2], a half-maximal response (EC50) required 365 nM.
`CN(C)Cc1cncc(-c2cnc3[nH]nc(-c4nc5c(-c6cccc(F)c6)nccc5[nH]4)c3c2)c1` [Compound 13, 1-(5-(3-(4-(3-Fluorophenyl)-1H-imidazo[4,5-c]pyridin-2-yl)-1H-pyrazolo[3,4-b]pyridin-5-yl)pyridin-3-yl)-N,N-dimethylmethanamine]: the half-maximal inhibitory concentration (IC50) in assay [1] was 339 nM. Also, the response in assay [2] was half-maximal at 30 nM (EC50).
Taken in the same sequence, the figures for `O=C(Nc1cncc(-c2cnc3[nH]nc(-c4nc5c(-c6cccc(F)c6)nccc5[nH]4)c3c2)c1)C1CC1` [Compound 19, N-(5-(3-(4-(3-Fluorophenyl)-1H-imidazo[4,5-c]pyridin-2-yl)-1H-pyrazolo[3,4-b]pyridin-5-yl)pyridin-3-yl)cyclopropanecarboxamide] were 5 nM and 27 nM.
For `CC(C)CC(=O)Nc1cncc(-c2cnc3[nH]nc(-c4nc5c(-c6ccc(F)cc6)nccc5[nH]4)c3c2)c1` [Compound 28, N-(5-(3-(4-(4-Fluorophenyl)-1H-imidazo[4,5-c]pyridin-2-yl)-1H-pyrazolo[3,4-b]pyridin-5-yl)pyridin-3-yl)-3-methylbutanamide] the same measures were 37.7 nM and 881 nM.
For `CC(C)(C)C(=O)Nc1cncc(-c2cnc3[nH]nc(-c4nc5c(-c6ccc(F)cc6)nccc5[nH]4)c3c2)c1` [Compound 34, N-(5-(3-(4-(4-Fluorophenyl)-1H-imidazo[4,5-c]pyridin-2-yl)-1H-pyrazolo[3,4-b]pyridin-5-yl)pyridin-3-yl)pivalamide] the same measures were 152 nM and 3060 nM.
For the compound `Fc1ccc(-c2nccc3[nH]c(-c4n[nH]c5ncc(-c6cncc(CN7CCCC7)c6)cc45)nc23)cc1` [Compound 40, 3-(4-(4-Fluorophenyl)-1H-imidazo[4,5-c]pyridin-2-yl)-5-(5-(pyrrolidin-1-ylmethyl)pyridin-3-yl)-1H-pyrazolo[3,4-b]pyridine], in assay [1], the IC50 is more than 10000 nM. In assay [2], the EC50 (commonly the concentration at which the effect is half-maximal) was not below 9990 nM.
Taken in the same sequence, the figures for `CC(C)C(=O)Nc1cncc(-c2cnc3[nH]nc(-c4nc5c(-c6ccccc6F)nccc5[nH]4)c3c2)c1` [Compound 61, N-(5-(3-(4-(2-Fluorophenyl)-1H-imidazo[4,5-c]pyridin-2-yl)-1H-pyrazolo[3,4-b]pyridin-5-yl)pyridin-3-yl)isobutyramide] were 28 nM and more than 10000 nM.
`CC(C)(C)CC(=O)Nc1cncc(-c2cnc3[nH]nc(-c4nc5c(-c6ccccc6F)nccc5[nH]4)c3c2)c1` [Compound 68, N-(5-(3-(4-(2-Fluorophenyl)-1H-imidazo[4,5-c]pyridin-2-yl)-1H-pyrazolo[3,4-b]pyridin-5-yl)pyridin-3-yl)-3,3-dimethylbutanamide]: in assay [1], the IC50 amounted to 95.7 nM. The compound further gave a concentration giving a half-maximal response (EC50) in assay [2] of 930 nM.
Taken in the same sequence, the figures for `O=C(Nc1cncc(-c2cnc3[nH]nc(-c4nc5c(-c6ccccc6F)nccc5[nH]4)c3c2)c1)C1CCCC1` [Compound 73, N-(5-(3-(4-(2-Fluorophenyl)-1H-imidazo[4,5-c]pyridin-2-yl)-1H-pyrazolo[3,4-b]pyridin-5-yl)pyridin-3-yl)cyclopentanecarboxamide] were 60.2 nM and 611 nM.
For `CC(C)C(=O)Nc1cncc(-c2cnc3[nH]nc(-c4nc5c(-c6cccnc6)nccc5[nH]4)c3c2)c1` [Compound 87, N-(5-(3-(4-(Pyridin-3-yl)-1H-imidazo[4,5-c]pyridin-2-yl)-1H-pyrazolo[3,4-b]pyridin-5-yl)pyridin-3-yl)isobutyramide] the same measures were more than 10000 nM and 9 nM.
For `CC(C)Nc1cncc(-c2cnc3[nH]nc(-c4nc5c(-c6cccnc6)nccc5[nH]4)c3c2)c1` [Compound 90, N-Isopropyl-5-(3-(4-(pyridin-3-yl)-1H-imidazo[4,5-c]pyridin-2-yl)-1H-pyrazolo[3,4-b]pyridin-5-yl)pyridin-3-amine] the same measures were 79.7 nM and not below 9990 nM.
Compound `c1ccc(CNCc2cncc(-c3cnc4[nH]nc(-c5nc6c(-c7cccnc7)nccc6[nH]5)c4c3)c2)cc1` [Compound 101, N-Benzyl-1-(5-(3-(4-(pyridin-3-yl)-1H-imidazo[4,5-c]pyridin-2-yl)-1H-pyrazolo[3,4-b]pyridin-5-yl)pyridin-3-yl)methanamine] yielded a concentration for half-maximal inhibition (IC50) in assay [1] of more than 10000 nM. In assay [2], this compound returned an EC50 not below 9990 nM.
For `Cc1ccncc1-c1cnc2[nH]nc(-c3nc4c(-c5ccncc5)nccc4[nH]3)c2c1` [Compound 109, 5-(4-Methylpyridin-3-yl)-3-(4-(pyridin-4-yl)-1H-imidazo[4,5-c]pyridin-2-yl)-1H-pyrazolo[3,4-b]pyridine] the same measures were more than 10000 nM and not below 9990 nM.
For `O=C(Cc1ccccc1)Nc1cncc(-c2cnc3[nH]nc(-c4nc5c(-c6ccncc6)nccc5[nH]4)c3c2)c1` [Compound 114, 2-Phenyl-N-(5-(3-(4-(pyridin-4-yl)-1H-imidazo[4,5-c]pyridin-2-yl)-1H-pyrazolo[3,4-b]pyridin-5-yl)pyridin-3-yl)acetamide] the same measures were more than 10000 nM and not below 9990 nM.
For `CCCC(=O)Nc1cncc(-c2cnc3[nH]nc(-c4nc5c(-c6ccncc6)nccc5[nH]4)c3c2)c1` [Compound 121, N-(5-(3-(4-(Pyridin-4-yl)-1H-imidazo[4,5-c]pyridin-2-yl)-1H-pyrazolo[3,4-b]pyridin-5-yl)pyridin-3-yl)butyramide] the same measures were more than 10000 nM and not below 9990 nM.
Take `CCNCc1cncc(-c2cnc3[nH]nc(-c4nc5c(-c6ccccn6)nccc5[nH]4)c3c2)c1` [Compound 136, N-((5-(3-(4-(Pyridin-2-yl)-1H-imidazo[4,5-c]pyridin-2-yl)-1H-pyrazolo[3,4-b]pyridin-5-yl)pyridin-3-yl)methyl)ethanamine]: the IC50 in assay [1] was more than 10000 nM. In assay [2], this compound had a concentration giving a half-maximal response (EC50) of 9 nM.
Taken in the same sequence, the figures for `O=C(Nc1cncc(-c2cnc3[nH]nc(-c4nc5c(-c6ccccn6)nccc5[nH]4)c3c2)c1)c1ccccc1` [Compound 141, N-(5-(3-(4-(Pyridin-2-yl)-1H-imidazo[4,5-c]pyridin-2-yl)-1H-pyrazolo[3,4-b]pyridin-5-yl)pyridin-3-yl)benzamide] were more than 10000 nM and not below 9990 nM.

For the origin of these results see patent US9493487B2, “3-(1H-imidazo[4,5-C]pyridin-2-YL)-1H-pyrazolo[3,4-B]pyridine and therapeutic uses thereof” (Samumed, LLC, priority 2014, dated 2016).
